Experimental data reported in ChEMBL document CHEMBL1201862, “PubChem BioAssay data set” (2004).
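Method: 48-hour compound exposure of cells in 96-well plates, five concentrations, linear interpolation of endpoints. Abbreviation: GI50, concentration required for 50% inhibition of growth.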 Calls of active or inactive are those of the source. Rule as the data show it: active = GI50 up to about 1.1 µM and inactive = higher.

Experiments:
Experiment in all cases: NCI-60 cell line screen, 48 h
[1] = system: RPMI-8226
[2] = system: SF-295
[3] = system: NCI-H23
[4] = system: OVCAR-8
[5] = system: SNB-75
[6] = system: HOP-92
[7] = system: MDA-N
[8] = system: HCC 2998
[9] = system: OVCAR-4
[10] = system: HCT-116
[11] = system: HOP-62
[12] = system: K562
[13] = system: NCI-H460
[14] = system: MCF7
[15] = system: HT-29
[16] = system: U-251
[17] = system: M14
[18] = system: HL-60
[19] = system: PC-3
[20] = system: SK-MEL-5

Measured: GI50

Cc1ccc(S(=O)(=O)C2=C(C(C)C)N=NC2(C)C)cc1
inactive: [1] 9.14 µM | [2] 71.8 µM | [3] 48.8 µM | [4] > 100 µM | [5] 95.3 µM | [6] 14.3 µM | [7] 80 µM | [8] 73.6 µM | [9] 72.9 µM | [10] 65.5 µM | [11] > 100 µM | [12] 28.6 µM | [13] > 100 µM | [14] 62.7 µM | [15] > 100 µM | [16] > 100 µM | [17] > 100 µM | [18] > 100 µM | [19] > 100 µM | [20] 79.8 µM

COc1cc2oc(=O)ccc2cc1CC=C(C)C [SUBEROSIN]
inactive: [1] 19.5 µM | [2] 41.1 µM | [3] 52.4 µM | [4] 44.6 µM | [5] 41.1 µM | [6] 18 µM | [7] 52.5 µM | [8] 31 µM | [9] 23.4 µM | [10] 38.6 µM | [11] > 100 µM | [12] 51.4 µM | [13] 50.8 µM | [14] 32.4 µM | [15] 22.6 µM | [16] 43.3 µM | [17] > 10 µM | [18] 14.7 µM | [19] 83 µM | [20] 37.3 µM

O=C(O)c1ccccc1/C=N\N(CCO)C1=NCCN1
inactive: [1] > 100 µM | [2] > 100 µM | [3] > 100 µM | [4] > 100 µM | [5] 93.1 µM | [6] > 100 µM | [7] > 100 µM | [8] > 100 µM | [9] > 100 µM | [10] > 100 µM | [11] > 100 µM | [12] > 100 µM | [13] > 100 µM | [14] > 100 µM | [15] > 100 µM | [16] > 100 µM | [17] > 100 µM | [18] > 100 µM | [19] > 100 µM | [20] > 100 µM

OC[C@H]1O[C@@H](n2cnc3c(S)ncnc32)[C@H](O)[C@@H]1O [THIOINOSINE]
inactive: [1] 1400 µM | [2] > 2500 µM | [3] > 2500 µM | [4] > 2440 µM | [5] > 2120 µM | [6] 1050 µM | [7] > 2310 µM | [8] > 2500 µM | [9] 1520 µM | [10] 2390 µM | [11] 2120 µM | [12] 1290 µM | [13] 2140 µM | [14] 2290 µM | [15] 2260 µM | [16] > 2450 µM | [17] 2360 µM | [18] > 1760 µM | [19] > 2500 µM | [20] > 2500 µM

O=C1C(=Cc2cccc(Cl)c2)N=C(c2ccccc2)N1n1c(-c2ccccc2)nc2ccccc2c1=O
inactive: [1] 40.8 µM | [2] 39 µM | [3] 20 µM | [4] 28.7 µM | [5] 29.9 µM | [6] 27 µM | [7] 33.8 µM | [8] 30.7 µM | [9] 42.3 µM | [10] 10.8 µM | [11] 34.8 µM | [12] 30.3 µM | [13] 6 µM | [14] 25.9 µM | [15] 37.2 µM | [16] 28 µM | [17] 22.7 µM | [18] 24.2 µM | [19] 28.8 µM | [20] 32.4 µM

Oc1ccc(Cn2c(-c3ccc(O)cc3)nc3ccccc32)cc1
inactive: [1] > 100 µM | [2] > 100 µM | [3] > 100 µM | [4] > 100 µM | [5] > 100 µM | [6] > 100 µM | [7] > 100 µM | [8] > 100 µM | [9] > 100 µM | [10] > 100 µM | [11] > 100 µM | [12] > 100 µM | [13] > 100 µM | [14] > 100 µM | [15] > 100 µM | [16] > 100 µM | [17] > 100 µM | [18] > 31.6 µM | [19] > 100 µM | [20] > 100 µM

CN(C)CCN(C)P12(Oc3ccccc3O1)Oc1c(Cl)c(Cl)c(Cl)c(Cl)c1O2
inactive: [1] 29.1 µM | [2] 37.1 µM | [3] 35.8 µM | [4] 40.7 µM | [5] 13.7 µM | [6] 22.1 µM | [7] 48.4 µM | [8] > 100 µM | [9] 33.5 µM | [10] 33.2 µM | [11] 45 µM | [12] 35.6 µM | [13] 37.2 µM | [14] 33.7 µM | [15] 43.8 µM | [16] 56.5 µM | [17] 50.5 µM | [18] 18.8 µM | [19] 33.7 µM | [20] 58.6 µM

O=C1c2c(O)cccc2C(C2OC(CO)C(O)C(O)C2O)c2cc(CO)cc(O)c21 (stereo not given)
inactive: [1] > 100 µM | [2] > 100 µM | [3] > 100 µM | [4] > 100 µM | [5] > 100 µM | [6] > 100 µM | [7] > 100 µM | [8] > 100 µM | [9] > 100 µM | [10] > 100 µM | [11] > 100 µM | [12] > 100 µM | [13] > 100 µM | [14] > 100 µM | [15] > 100 µM | [16] > 100 µM | [17] > 100 µM | [18] > 100 µM | [19] > 100 µM | [20] > 100 µM
